Experimental data taken from patent US7452688B2, “Transformed cell with enhanced sensitivity to antifungal compound and use thereof” (Sumitomo Chemical Company, Limited, priority 2002, dated 2008).

Key:
Type in all cases: cell-based, Saccharomyces cerevisiae
[1] = system: transformed budding yeast TM182-FoOS1; test: Antifungal compound sensitivity test of transformed budding yeast TM182-FoOS1 (Example 13); settings: for Degree of growth of budding yeast TM182-FoOS1 Gal-Ura-Leu medium: control medium, 30° C. 51 hours; for Degree of growth of budding yeast TM182-FoOS1 Gul-Ura-Leu medium: 30° C. 25 hours
Experimental: Similarly, the transformed budding yeast TM182-FoOS1 prepared in Example 12 was cultured at 30° C. for 18 hours in a Glu-Ura-Leu medium. The absorbance at 600 nm of the grown transformed budding yeast in a cell suspension was measured, and a cell suspension diluted with sterilized distilled water to the absorbance of 0.1 was prepared. Further, a cell suspension in which the transformed budding yeast TM182-FoOS1 was diluted 50-fold with a Glu-Ura-Leu medium and, as a control, a cell suspension in which the yeast was diluted 50-fold with a Gal-Ura-Leu medium were prepared.
A solution in which each of Compounds (1) to (3) was dissolved in dimethylsulfoxide (DMSO) to the concentration of 600 ppm, a solution in which each of Compounds […] and (5) was dissolved in dimethylsulfoxide (DMSO) to the concentration of 2000 ppm, and a solution in which each of Compounds (6) and (7) was dissolved in dimethylsulfoxide (DMSO) to the concentration of 20 ppm were prepared, and two microplates were prepared in which each 2.0 μL per well of the Compound-DMSO solution and DMSO as a control were dispensed into 2 wells. In one microplate among them, each 100 μL of cell suspensions of the transformed budding yeast TM182-FoOS1 which had been prepared by dilution with a Glu-Ura-Leu medium as described above was dispensed, and cultured by allowing to stand at 30° C. for 25 hours. In another microplate, as described above, as a control, each 100 μL of cell suspensions of the transformed budding yeast TM182-FoOS1 which had been prepared by dilution with a Gal-Ura-Leu medium was dispensed, and cultured at 30° C. for 51 hours. After culturing, the absorbance at 600 nm of each well was measured with a microplate reader.
A degree of growth of the transformed budding yeast is expressed as a relative value in percentage, letting the absorbance at 600 nm at the concentration of the Compound of 0 ppm to be 100. It was confirmed that an inhibiting degree of growth of the transformed budding yeast TM182-FoOS1 by each test substance was grater than an inhibiting degree of growth of the transformed budding yeast AH22-FoOS1 by each test substance, and the transformed budding yeast TM182-FoOS1 was a transformed cell with the enhanced sensitivity to an antifungal compound as compared with the transformed budding yeast AH22-FoOS1.

[2] = system: transformed budding yeast AH22-BcOS1-I365S; test: Antifungal compound sensitivity test, transformed budding yeast AH22-BcOS1-I365S (Example 6); settings: absorbance at 600 nm relative to 0 ppm = 100
From the text: Degrees of growths of both of the transformed budding yeasts cultured under the presence of Compounds (1) to (7) and budding yeast as a control therefor are shown in Table 2. Degrees of growths of both of the transformed budding yeasts and budding yeast as a control are expressed by a relative value in percentage, letting the absorbance at 600 nm at the concentration of the Compound of 0 ppm to be 100. It was confirmed that an inhibiting degree of growth of the transformed budding yeast TM182-BcOS1-I 365S by each test substance was grater than an inhibiting degree of growth of the transformed budding yeast AH22-BcOS1-I 365S by each test substance, and the transformed budding yeast TM182-BcOS1-I365S was a transformed cell with the enhanced sensitivity to an antifungal compound as compared with the transformed budding yeast AH22-BcOS1-I365S.

[3] = system: AH22 strain; test: Antifungal compound sensitivity test, control yeast AH22 strain (Example 3); settings: 30° C. 48 hours, absorbance at 600 nm relative to 0 ppm = 100
Experimental: The transformed budding yeast AH22-BcOS1 prepared in Example 2 was cultured while shaking at 30° C. for 18 hours in a Glu-Leu medium. As a control, the AH22 strain was similarly cultured while shaking at 30° C. for 18 hours in a Glu medium. The absorbance at 600 nm of each of the grown transformed budding yeasts in a cell suspension was measured, and a cell suspension diluted with sterilized distilled water to the absorbance of 0.1 was prepared. Further, a cell suspension in which the aforementioned cell suspension of the transformed budding yeast AH22-BcOS1 was diluted 200-fold with a Glu-Leu medium, and a cell suspension in which the aforementioned cell suspension of the AH22 strain was diluted 200-fold with a Glu medium were prepared. A solution in which each of Compounds (1) to (3) was dissolved in dimethylsulfoxide (DMSO) to the concentration of 60 ppm, a solution in which each of Compounds (4) and (5) was dissolved in dimethylsulfoxide (DMSO) to the concentration of 2000 ppm, and a solution in which each of Compounds (6) and (7) was dissolved in dimethylsulfoxide (DMSO) to the concentration of 20 ppm were prepared, and two microplates were prepared in which each 2.0 μL per well of the Compound solution and DMSO as a control were dispensed into two wells. In one microplate among them, each 200 μL of cell suspensions of the transformed budding yeast AH22-BcOS1 which had been prepared by dilution as described above was dispensed, and cultured by allowing to stand at 30° C. for 48 hours. In another microplate, each 200 μL of the cell suspensions of the control yeast AH22 strain which had been prepared by dilution as described above was dispensed, and cultured by allowing to stand at 30° C. for 48 hours. After culturing, the absorbance at 600 nm of each well was measured with a microplate reader.
Degree of growths of both of the transformed budding yeasts cultured under the presence of each of Compound (1) to (7) and budding yeast as a control therefor are shown in Table 1. Degree of growths of both of the transformed budding yeasts and budding yeasts as a control therefor are expressed by a relative value in percentage, letting the absorbance at 600 nm in a well having the concentration of the aforementioned Compound of 0 ppm to be 100. It was confirmed that an inhibiting degree of growth of TM182-BcOS1 by each test substance was grater than an inhibiting degree of growth of AH22-BcOS1 by each test substance, and the TM182-BcOS1 was a transformed cell with the enhanced sensitivity to an antifungal compound as compared with AH22-BcOS1.

With `CC12CC1(C)C(=O)N(c1cc(Cl)cc(Cl)c1)C2=O` (stereo not shown) [Compound (1), Procymidone] the “Degree of growth of budding yeast TM182-FoOS1 Gal-Ura-Leu medium” value ([1]; final concentration 6 ppm) was 116%, the “Degree of growth of budding yeast TM182-FoOS1 Gul-Ura-Leu medium” value ([1]; final concentration 6 ppm) was 26% and the “Degree of growth of budding yeast (%) AH22-BcOS1-I365S Glu-Leu medium” value (“Degree … (%) AH22-BcOS1-I365S Glu-Leu medium” for short) ([2]; final concentration 6 ppm) was 68%. The “Degree of growth of budding yeast (%) AH22 Glu medium” value (shortened to “Degree … (%) AH22 Glu medium”) ([3]; final concentration 0.6 ppm) was 99%.
For `CC(C)NC(=O)N1CC(=O)N(c2cc(Cl)cc(Cl)c2)C1=O` [Compound (2), Iprodione], the “Degree of growth of budding yeast TM182-FoOS1 Gal-Ura-Leu medium” value ([1]; final concentration 6 ppm) was 87%, the “Degree of growth of budding yeast TM182-FoOS1 Gul-Ura-Leu medium” value ([1]; final concentration 6 ppm) was 55% and the “Degree … (%) AH22-BcOS1-I365S Glu-Leu medium” value ([2]; final concentration 6 ppm) was 81%. The “Degree … (%) AH22 Glu medium” value ([3]; final concentration 0.6 ppm) was 99%.
With `C=CC1(C)OC(=O)N(c2cc(Cl)cc(Cl)c2)C1=O` (stereo not shown) [Compound (3), Vinclozolin] the “Degree of growth of budding yeast TM182-FoOS1 Gal-Ura-Leu medium” value ([1]; final concentration 6 ppm) was 99%, the “Degree of growth of budding yeast TM182-FoOS1 Gul-Ura-Leu medium” value ([1]; final concentration 6 ppm) was 22% and the “Degree … (%) AH22-BcOS1-I365S Glu-Leu medium” value ([2]; final concentration 6 ppm) was 75%. The “Degree … (%) AH22 Glu medium” value ([3]; final concentration 0.6 ppm) was 98%.
In the case of `O=[N+]([O-])c1c(Cl)c(Cl)c(Cl)c(Cl)c1Cl` [Compound (4), Quintozene], the “Degree of growth of budding yeast TM182-FoOS1 Gal-Ura-Leu medium” value ([1]; final concentration 20 ppm) is reported as 104%, the “Degree of growth of budding yeast TM182-FoOS1 Gul-Ura-Leu medium” value ([1]; final concentration 20 ppm) is reported as 20% and the “Degree … (%) AH22-BcOS1-I365S Glu-Leu medium” value ([2]; final concentration 20 ppm) is reported as 83%. The “Degree … (%) AH22 Glu medium” value ([3]; final concentration 20 ppm) was 96%.
In the case of `COP(=S)(OC)Oc1c(Cl)cc(C)cc1Cl` [Compound (5), Tolclofos-methyl], the “Degree of growth of budding yeast TM182-FoOS1 Gal-Ura-Leu medium” value ([1]; final concentration 20 ppm) is reported as 80%, the “Degree of growth of budding yeast TM182-FoOS1 Gul-Ura-Leu medium” value ([1]; final concentration 20 ppm) is reported as 57% and the “Degree … (%) AH22-BcOS1-I365S Glu-Leu medium” value ([2]; final concentration 20 ppm) is reported as 64%. The “Degree … (%) AH22 Glu medium” value ([3]; final concentration 20 ppm) was 97%.
In the case of `N#Cc1c[nH]cc1-c1cccc2c1OC(F)(F)O2` [Compound (6), Fludioxonil], the “Degree of growth of budding yeast TM182-FoOS1 Gal-Ura-Leu medium” value ([1]; final concentration 0.2 ppm) is reported as 99%, the “Degree of growth of budding yeast TM182-FoOS1 Gul-Ura-Leu medium” value ([1]; final concentration 0.2 ppm) is reported as 7% and the “Degree … (%) AH22-BcOS1-I365S Glu-Leu medium” value ([2]; final concentration 0.2 ppm) is reported as 67%. The “Degree … (%) AH22 Glu medium” value ([3]; final concentration 0.2 ppm) was 99%.
`N#Cc1c[nH]cc1-c1cccc(Cl)c1Cl` [Compound (7), Fenpiclonil] was tested, and the “Degree of growth of budding yeast TM182-FoOS1 Gal-Ura-Leu medium” value ([1]; final concentration 0.2 ppm) was 89%, the “Degree of growth of budding yeast TM182-FoOS1 Gul-Ura-Leu medium” value ([1]; final concentration 0.2 ppm) was 21% and the “Degree … (%) AH22-BcOS1-I365S Glu-Leu medium” value ([2]; final concentration 0.2 ppm) was 79%. The “Degree … (%) AH22 Glu medium” value ([3]; final concentration 0.2 ppm) was 101%.
